# Values quoted from earlier work as cited in publication PMC8952239, “Injectable Biodegradable Silica Depot: Two Months of Sustained Release of the Blood Glucose Lowering Peptide, Pramlintide” (Pharmaceutics, 2022).
# Bridge positions count the residues as written; N and C are the ends. Ends that are not written are not given here.
# Legend:
# [1] = weak acid; no reference given
# Text: In this communication, we highlight a sustained delivery strategy for in vivo delivery of the synthetic peptide analogue of amylin, pramlintide acetate. As mentioned earlier, amylin is the endogenous hormone co-secreted with insulin by the pancreas for glucose metabolism in vivo. […] Such effects can be moderated either by decreasing the single dosing of preprandial ins ...
# lean rats = tested on: lean rats
# Text: (Figure 6). […] The findings for bodyweight loss mirror very well previously published data in lean rats. Roth et al. show body weight returning to baseline levels 8 days after the start of amylin treatment in an experiment assessing the effect ...
# rats = tested on: rats
# Method: In an earlier preclinical study of pramlintide in rats, the peak plasma concentration of pramlintide at 50% maximally effective gastric inhibitory dose was reported to be 15 pM. The lower dose (5 mg/kg) formulation in the present study seems to achieve this concentration level by the end of the study.
compound,measurement,setting,value
O[Si](O)(O)O [silicic acid],pKa,[1],9.84
"amylin: endogenous hormone co-secreted with insulin by the pancreas (KCNTATCATQRLANFLVHSSNNFGAILSSTNVGSNTY; Islet amyloid polypeptide; UniProt P10997 34-70, looked up)",time after start of treatment at which body weight returned to baseline levels,lean rats; continuous subcutaneous amylin infusion over 24 days,8 days
same,period with significant effects on food intake,"lean rats; lean animals, minipump over 14 days",6 days
"pramlintide acetate (KCNTATCATQRLANFLVHSSNNFGPILPPTNVGSNTY-NH2; disulfide 2-7 (inferred); also: acetate salt; UniProt P10997 34-70, looked up, variant A25P S28P S29P) [synthetic analogue of amylin, adjunct to preprandial insulin therapy]",peak plasma concentration at 50% maximally effective gastric inhibitory dose,rats,15 pM
